These results are taken from patent publication US20210069295A1, “GALECTINS CONTROL MTOR IN RESPONSE TO ENDOMEMBRANE DAMAGE AND PROVIDE A MECHANISM AND TARGET FOR THE TREATMENT OF AUTOPHAGY-RELATED DISEASES” (STC. UNM, priority 2017, published 2021).

Each structure is given as a SMILES string. Peptide text beside a SMILES is read from it.

The test relates to mTOR. In words: mTOR activity in human peripheral blood monocyte derived macrophages. The settings on record: 100 μM GPN, 1 h. The test is classed as cell-based. Here is the method: (A) Dose-response analysis of mTOR activity in HEK293T cells treated with glycyl-L-phenylalanine 2-naphththylamide (GPN) in full medium for 1 h. mTOR activity was monitored by inununoblotting analysis of S6K1 (T389) and ULK1 (S757) phosphorylation (phosphorylated S6K (T389) and ULK1 (S757) relative to total S6K and ULK1, respectively). (B) Analysis of mTOR activity (as in A) after GPN washout. HEK293T cells were treated with 100 μM GPN for 1 h followed by 1 h washout in full medium. Data, means±SEM (n=3), **p<0.01, ANOVA. (C) Analysis of mTOR activity (as in A) in HEK293T cells treated with increasing doses of silica in full medium for 1 h. (D) HEK293T cells were treated with lysosomal damaging agents (LLOMe, Leu-Leu-OMe) for 1 h in full medium and status of acidified organelles assessed by quantifying LysoTracker Red DND-99 puncta using automated high-content imaging and analysis (HC). […] Data, means±SEM, n≥3 independent experiments (500 primary objects counted per well; ≥5 wells/sample per each experiment), **p<0.01, ANOVA. […] Human peripheral blood monocyte derived macrophages were treated with 100 μM GPN in full medium or starved in EBSS for 1 h, and mTOR activity measured as in A. None-treated cells were as control (Ctrl). […] Data, means±SEM, n≥3 independent experiments (500 primary objects counted per well; ≥5 wells/sample per each experiment) **p<0.01, ANOVA. […]

With `NCC(=O)N[C@@H](Cc1ccccc1)C(=O)Nc1ccc2ccccc2c1` [GPN, glycyl-L-phenylalanine 2-naphththylamide] (HELM PEPTIDE1{G.F.[c1ccc2cc(N[*:1])ccc2c1]}$$$$V2.0), the “mTOR activity in primary cells” value is on record as “confirmed”.
